In US12122778B2, “Activating pyruvate kinase R” (Novo Nordisk Health Care AG, priority 2018, dated 2024):

Assays:
PKR(G332S) = PKR(G332S) (Homo sapiens, UniProt P30613, G332S); experiment: Luminescence Biochemical Assay (Kinase Glo Plus), PKR G332S mutant; conditions: with FBP; for activation at 1.54 µM: 1.54 μM compound, read-out: AC50 LUM KGP FBP % Fold@1.54 μM mean; for AC50: read-out: AC50 LUM KGP FBP AC50 μM gmean (column A); for Emax: read-out: AC50 LUM KGP FBP MAX % FOLD mean
Method: In some embodiments, a PKR Activating Compound can have: (1) an AC50 value of less than 0.1 μM (e.g., compounds with AC50 values of “+++” in Table 13), 0.1-1.0 μM (e.g., compounds with AC50 values of “++” in Table 13), or 1.01-40 μM (e.g., compounds with AC50 values of “+” in Table 13); (2) a MAX % Fold of 75%-250%, 250-500%, or 75%-500%; and/or (3) a % Fold@1.54 μM of 75%-250%, 250-500%, or 75%-500%. In some embodiments, a PKR Activating Compound has (1) an AC50 value of less than 1.0 μM; (2) a MAX % Fold of 75%-500%; and/or (3) a % Fold@1.54 μM of 75%-500%.
The phosphorylation of Adenosine-5′-diphosphate (ADP) by various mutants of PKR was determined by the Kinase Glo Plus Assay (Promega) in the presence or absence of FBP [D-Fructose-1,6-diphosphate; BOC Sciences, CAS: 81028-91-3] as follows. Unless otherwise indicated, all reagents were purchased from Sigma-Aldrich. All reagents were prepared in buffer containing 50 mM Tris-HCl, 100 mM KCl, 5 mM MgCl2, and 0.01% Triton X100, 0.03% BSA, and 1 mM DTT. Enzyme and PEP [Phospho(enol) pyruvic acid] were added at 2× to all wells of an assay-ready plate containing serial dilutions of test compounds or DMSO vehicle. Final enzyme concentrations for PKR(wt), PKR(R510Q), and PKR(G332S) were 0.8 nM, 0.8 nM, and 10 nM respectively. Final PEP concentration was 100 μM. The Enzyme/PEP mixture was incubated with compounds for 30 minutes at RT before the assay was initiated with the addition of 2×ADP [Adenosine-5′-diphosphate] and KinaseGloPlus. Final concentration of ADP was 100 μM. […] For assays containing FBP, that reagent is added at 30 μM upon reaction initiation. Reactions were allowed to progress for 45 minutes at RT until luminescence was recorded by the BMG PHERAstar FS Multilabel Reader. All compounds were tested in triplicate at concentrations ranging from 42.5 μM to 2.2 nM in 0.83% DMSO.
Luminescence values were converted to % Fold increase by normalizing to the average of the DMSO control and multiplying by 100. Max, min, slope and AC50 were determined by the standard four parameter fit algorithm of ActivityBase XE Runner. Compounds were evaluated with three parameters—AC50, MAX % Fold, and % Fold@1.54 μM (FIG. 1). The AC50 value for a compound is the concentration (μM) corresponding to the midway between the maximum and minimum values of the four parameter logistic curve fit (i.e., at which the % fold increase along the four parameter logistic curve fit is halfway between MAX % Fold and MIN % Fold (% Fold Midpoint)), MAX % Fold is the highest fold increase observed at any concentration of compound, and % Fold@1.54 μM is the fold increase at a compound concentration of 1.54 μM. The parameter % Fold@1.54 μM was selected to capture elements of both the AC50 and MAX % Fold and to provide a ranking based on both potency and effect. The compound concentration of 1.54 μM was chosen as one that can optimally differentiate the set of compounds based on the range of activities observed.
As set forth in Table 13 below, AC50 values (columns A, D, G) are defined as follows: ≤0.1 μM (+++); >0.1 μM and ≤1.0 μM (++); >1.0 μM and ≤40 μM (+); >40 μM (0). Max % FOLD values (columns B, E, H) are defined as follows: ≤75% (+); >75% and ≤250% (++); >250% and ≤500% (+++). % Fold@1.54 μM values (columns C, F, J) are defined as follows: ≤75% (+); >75% and ≤250% (++); >250% and ≤50000 (+++).

PKR(wt) = PKR(wt) (Homo sapiens, UniProt P30613); experiment: Luminescence Biochemical Assay (Kinase Glo Plus), wild type PKR; conditions: without FBP; for activation at 1.54 µM: 1.54 μM compound, read-out: AC50 LUM KGP woFBP % Fold@1.54 μM mean; for AC50: read-out: AC50 LUM KGP woFBP AC50 μM gmean; for Emax: read-out: AC50 LUM KGP woFBP MAX % FOLD mean
PKR(R510Q) = PKR(R510Q) (Homo sapiens, UniProt P30613, R510Q); experiment: Luminescence Biochemical Assay (Kinase Glo Plus), PKR R510Q mutant; conditions: without FBP; for activation at 1.54 µM: 1.54 μM compound, read-out: AC50 LUM KGP woFBP % Fold@1.54 μM mean; for AC50: read-out: AC50 LUM KGP woFBP AC50 μM gmean; for Emax: read-out: AC50 LUM KGP woFBP MAX % FOLD mean
Chain of PKR(R510Q) (P30613 whole entry R510Q): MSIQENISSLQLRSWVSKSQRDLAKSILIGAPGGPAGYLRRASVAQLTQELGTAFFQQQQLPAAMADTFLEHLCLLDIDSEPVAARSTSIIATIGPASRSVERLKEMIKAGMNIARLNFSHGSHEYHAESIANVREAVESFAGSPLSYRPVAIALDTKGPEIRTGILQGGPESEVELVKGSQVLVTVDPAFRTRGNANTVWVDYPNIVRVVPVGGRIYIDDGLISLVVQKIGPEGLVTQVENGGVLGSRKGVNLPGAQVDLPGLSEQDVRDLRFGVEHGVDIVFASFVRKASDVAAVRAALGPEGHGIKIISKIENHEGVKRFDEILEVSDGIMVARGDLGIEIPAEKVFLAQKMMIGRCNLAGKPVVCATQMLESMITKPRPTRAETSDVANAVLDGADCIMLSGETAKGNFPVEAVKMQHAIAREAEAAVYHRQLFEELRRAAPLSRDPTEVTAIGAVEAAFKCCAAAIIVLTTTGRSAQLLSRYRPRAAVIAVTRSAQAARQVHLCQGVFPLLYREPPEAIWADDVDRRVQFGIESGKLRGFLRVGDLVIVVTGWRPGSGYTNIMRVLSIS

Chain of PKR(wt) (P30613 whole entry): as the sequence (P30613 whole entry R510Q) above, with Q510R counted along it
Chain of PKR(G332S) (P30613 whole entry G332S): as the sequence (P30613 whole entry R510Q) above, with G332S, Q510R counted along it

Question: What does the source list for `O=C([C@H](O)c1ccc(F)cc1)N1CC2=C(C1)CN(S(=O)(=O)c1ccccn1)C2` [Example 18-63, (2R)-2-(4-fluorophenyl)-2-hydroxy-1-[5-(pyridine-2-sulfonyl)-1H,2H,3H,4H,5H,6H-pyrrolo[3,4-c]pyrrol-2-yl]ethan-1-one]?
Answer: activation at 1.54 µM (PKR(G332S)): 75 to 250%; AC50 (PKR(G332S)): 1 to 40 µM; Emax (PKR(G332S)): 75 to 250%; activation at 1.54 µM (PKR(wt)): 75 to 250%; AC50 (PKR(wt)): 0.1 to 1 µM; Emax (PKR(wt)): 250 to 500%; activation at 1.54 µM (PKR(R510Q)): 250 to 50000%; AC50 (PKR(R510Q)): 0.1 to 1 µM; Emax (PKR(R510Q)): 250 to 500%

Question: How did the activation at 1.54 µM (PKR(G332S)) turn out when `O=C(NCc1ccccc1F)N1CC2=C(C1)CN(S(=O)(=O)c1ccc3ncsc3c1)C2` [Example 21-20, 5-(1,3-Benzothiazole-6-sulfonyl)-N-[(2-fluorophenyl)methyl]-1H,2H,3H,4H,5H,6H-pyrrolo[3,4-c]pyrrole-2-carboxamide] was run?
Answer: Its activation at 1.54 µM is 75 to 250%.

Question: And the AC50 (PKR(G332S))?
Answer: Its AC50 is ≤ 0.1 µM.

Question: And the Emax (PKR(G332S))?
Answer: The Emax was 75 to 250%.

Question: And the activation at 1.54 µM (PKR(wt))?
Answer: Its activation at 1.54 µM is 250 to 50000%.

Question: And the AC50 (PKR(wt))?
Answer: Its AC50 is ≤ 0.1 µM.

Question: And the Emax (PKR(wt))?
Answer: Its Emax is 250 to 500%.

Question: And the activation at 1.54 µM (PKR(R510Q))?
Answer: Its activation at 1.54 µM is 250 to 50000%.

Question: And the AC50 (PKR(R510Q))?
Answer: The AC50 was ≤ 0.1 µM.

Question: What about the Emax (PKR(R510Q)) of the same molecule?
Answer: The Emax was 250 to 500%.

Question: What does the source list for `COc1cccc(CNC(=O)N2CC3=C(C2)CN(S(=O)(=O)c2ccc(OC(F)F)cc2)C3)c1` [Example 21-11, 5-[4-(Difluoromethoxy)benzenesulfonyl]-N-[(3-methoxyphenyl)methyl]-1H,2H,3H,4H,5H,6H-pyrrolo[3,4-c]pyrrole-2-carboxamide]?
Answer: activation at 1.54 µM (PKR(G332S)): 75 to 250%; AC50 (PKR(G332S)): ≤ 0.1 µM; Emax (PKR(G332S)): 75 to 250%; activation at 1.54 µM (PKR(wt)): 250 to 50000%; AC50 (PKR(wt)): ≤ 0.1 µM; Emax (PKR(wt)): 250 to 500%; activation at 1.54 µM (PKR(R510Q)): 250 to 50000%; AC50 (PKR(R510Q)): ≤ 0.1 µM; Emax (PKR(R510Q)): 250 to 500%

Question: With `O=C([C@@H]1CCCO1)N1CC2=C(C1)CN(S(=O)(=O)c1ccccn1)C2` [Example 18-69, 2-({5-[(2S)-oxolane-2-carbonyl]-1H,2H,3H,4H,5H,6H-pyrrolo[3,4-c]pyrrol-2-yl}sulfonyl)pyridine] as the molecule, how does the activation at 1.54 µM (PKR(G332S)) read?
Answer: The activation at 1.54 µM was 75 to 250%.

Question: What about the AC50 (PKR(G332S)) of the same molecule?
Answer: Its AC50 is 1 to 40 µM.

Question: And the Emax (PKR(G332S))?
Answer: Its Emax is 75 to 250%.

Question: And the activation at 1.54 µM (PKR(wt))?
Answer: Its activation at 1.54 µM is 75 to 250%.

Question: And the AC50 (PKR(wt))?
Answer: Its AC50 is 1 to 40 µM.

Question: What about the Emax (PKR(wt)) of the same molecule?
Answer: The Emax was 75 to 250%.

Question: What about the activation at 1.54 µM (PKR(R510Q)) of the same molecule?
Answer: Its activation at 1.54 µM is 75 to 250%.

Question: And the AC50 (PKR(R510Q))?
Answer: Its AC50 is 1 to 40 µM.

Question: What about the Emax (PKR(R510Q)) of the same molecule?
Answer: Its Emax is 75 to 250%.

Question: Which activation at 1.54 µM (PKR(G332S)) does the source give for `O=C([C@H](O)c1ccccc1)N1CC2=C(C1)CN(S(=O)(=O)c1cccc(OC(F)F)c1)C2` [Example 18-15, (2R)-1-{5-[3-(difluoromethoxy)benzene-sulfonyl]-1H,2H,3H,4H,5H,6H-pyrrolo[3,4-c]pyrrol-2-yl}-2-hydroxy-2-phenylethan-1-one] here?
Answer: The activation at 1.54 µM was 75 to 250%.

Question: What about the AC50 (PKR(G332S)) of the same molecule?
Answer: The AC50 was ≤ 0.1 µM.

Question: And the Emax (PKR(G332S))?
Answer: The Emax was 75 to 250%.

Question: What about the activation at 1.54 µM (PKR(wt)) of the same molecule?
Answer: Its activation at 1.54 µM is 75 to 250%.

Question: And the AC50 (PKR(wt))?
Answer: Its AC50 is ≤ 0.1 µM.

Question: What about the Emax (PKR(wt)) of the same molecule?
Answer: The Emax was 75 to 250%.

Question: And the activation at 1.54 µM (PKR(R510Q))?
Answer: Its activation at 1.54 µM is 250 to 50000%.

Question: What about the AC50 (PKR(R510Q)) of the same molecule?
Answer: Its AC50 is ≤ 0.1 µM.

Question: And the Emax (PKR(R510Q))?
Answer: Its Emax is 250 to 500%.

Question: Which results are given for `O=C(NCc1cnco1)N1CC2=C(C1)CN(S(=O)(=O)c1ccc(F)cc1)C2` [Example 5-1, 5-(4-Fluorophenylsulfonyl)-N-(oxazol-5-ylmethyl)-3,4,5,6-tetrahydropyrrolo[3,4-c]pyrrole-2(1H)-carboxamide]?
Answer: activation at 1.54 µM (PKR(G332S)): 75 to 250%; AC50 (PKR(G332S)): 0.1 to 1 µM; Emax (PKR(G332S)): 75 to 250%; activation at 1.54 µM (PKR(R510Q)): 75 to 250%; AC50 (PKR(R510Q)): 1 to 40 µM; Emax (PKR(R510Q)): 75 to 250%

Question: For `CN1CCOc2ccc(S(=O)(=O)N3CC4=C(CN(C(=O)NCc5ccc(F)cc5)C4)C3)cc21` [Example 21-26, N-[(4-fluorophenyl)methyl]-5-[(4-methyl-3,4-dihydro-2H-1,4-benzoxazin-6-yl)sulfonyl]-1H,2H,3H,4H,5H,6H-pyrrolo[3,4-c]pyrrole-2-carboxamide], which activation at 1.54 µM (PKR(G332S)) is on record?
Answer: The activation at 1.54 µM was 75 to 250%.

Question: And the AC50 (PKR(G332S))?
Answer: The AC50 was 1 to 40 µM.

Question: What about the Emax (PKR(G332S)) of the same molecule?
Answer: Its Emax is 75 to 250%.

Question: What about the activation at 1.54 µM (PKR(R510Q)) of the same molecule?
Answer: Its activation at 1.54 µM is 75 to 250%.

Question: What about the AC50 (PKR(R510Q)) of the same molecule?
Answer: The AC50 was 0.1 to 1 µM.

Question: And the Emax (PKR(R510Q))?
Answer: Its Emax is 75 to 250%.
